pIC50: −log10 of the molar value.
Assays:
[1] = target: Stromelysin-1 (Homo sapiens, UniProt P08254)
[2] = target: Neutrophil collagenase (Homo sapiens, UniProt P22894)
[3] = Cmax in rat at 20 mg/kg, po; format: ADME, organism-based; design: dose 20 mg/kg, route oral; conditions: in vivo
[4] = tested on: Rattus norvegicus; assay: Plasma concentration in rat at 20 mg/kg, po; format: ADME, organism-based; design: dose 20 mg/kg, route oral; conditions: in vivo; also: time not given here
[5] = target: T1, Interstitial collagenase (Homo sapiens, UniProt P03956); format: cell-based, HT-1080
T1 sequence (P03956 whole entry): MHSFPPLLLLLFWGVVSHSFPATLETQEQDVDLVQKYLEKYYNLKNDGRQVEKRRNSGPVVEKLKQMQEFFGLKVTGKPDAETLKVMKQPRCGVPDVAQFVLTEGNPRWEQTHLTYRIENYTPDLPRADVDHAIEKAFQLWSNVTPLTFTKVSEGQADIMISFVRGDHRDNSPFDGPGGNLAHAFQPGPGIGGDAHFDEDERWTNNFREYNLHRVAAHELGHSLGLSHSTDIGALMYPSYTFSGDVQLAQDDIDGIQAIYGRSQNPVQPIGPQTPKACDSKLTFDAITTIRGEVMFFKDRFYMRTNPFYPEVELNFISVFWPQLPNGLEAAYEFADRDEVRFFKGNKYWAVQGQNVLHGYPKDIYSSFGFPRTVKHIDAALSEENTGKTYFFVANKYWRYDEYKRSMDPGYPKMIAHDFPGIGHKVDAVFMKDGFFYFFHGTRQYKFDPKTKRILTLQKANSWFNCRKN

[6] = target: 72 kDa type IV collagenase (Homo sapiens, UniProt P08253)
[7] = target: Collagenase 3 (Homo sapiens, UniProt P45452)
[8] = Half life in rat at 20 mg/kg, po; format: ADME, organism-based; design: dose 20 mg/kg, route oral; conditions: in vivo
[9] = Oral bioavailability in rat at 20 mg/kg; format: ADME, organism-based; conditions: in vivo
[10] = Cmax in rat at 10 mg/mL, iv and po; format: ADME, organism-based; conditions: in vivo
[11] = tested on: Rattus norvegicus; assay: Plasma concentration in rat at 10 mg/mL, iv and po; format: ADME, organism-based; conditions: in vivo; also: time not given here
[12] = Half life in rat at 10 mg/mL, iv and po; format: ADME, organism-based; conditions: in vivo
[13] = Oral bioavailability in rat at 10 mg/mL; format: ADME, organism-based; conditions: in vivo
[14] = target: Matrix metalloproteinase-9 (Homo sapiens, UniProt P14780)
[15] = target: Matrix metalloproteinase-14 (Homo sapiens, UniProt P50281)

Sequence of Stromelysin-1 (P08254 whole entry): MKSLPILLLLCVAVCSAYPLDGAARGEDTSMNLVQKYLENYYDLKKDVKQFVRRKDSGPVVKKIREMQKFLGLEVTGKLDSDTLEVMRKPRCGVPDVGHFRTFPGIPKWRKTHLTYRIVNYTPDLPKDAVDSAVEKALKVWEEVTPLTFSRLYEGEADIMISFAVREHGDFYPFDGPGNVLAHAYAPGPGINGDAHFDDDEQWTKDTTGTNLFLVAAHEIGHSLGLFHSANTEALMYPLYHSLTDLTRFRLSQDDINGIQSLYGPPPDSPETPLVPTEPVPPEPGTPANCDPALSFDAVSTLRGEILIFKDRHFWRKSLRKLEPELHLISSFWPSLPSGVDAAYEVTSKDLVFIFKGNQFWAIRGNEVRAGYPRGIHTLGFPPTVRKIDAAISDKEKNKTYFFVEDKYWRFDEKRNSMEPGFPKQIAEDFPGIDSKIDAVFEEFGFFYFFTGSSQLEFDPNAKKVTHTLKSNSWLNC
Sequence of Neutrophil collagenase (P22894 whole entry): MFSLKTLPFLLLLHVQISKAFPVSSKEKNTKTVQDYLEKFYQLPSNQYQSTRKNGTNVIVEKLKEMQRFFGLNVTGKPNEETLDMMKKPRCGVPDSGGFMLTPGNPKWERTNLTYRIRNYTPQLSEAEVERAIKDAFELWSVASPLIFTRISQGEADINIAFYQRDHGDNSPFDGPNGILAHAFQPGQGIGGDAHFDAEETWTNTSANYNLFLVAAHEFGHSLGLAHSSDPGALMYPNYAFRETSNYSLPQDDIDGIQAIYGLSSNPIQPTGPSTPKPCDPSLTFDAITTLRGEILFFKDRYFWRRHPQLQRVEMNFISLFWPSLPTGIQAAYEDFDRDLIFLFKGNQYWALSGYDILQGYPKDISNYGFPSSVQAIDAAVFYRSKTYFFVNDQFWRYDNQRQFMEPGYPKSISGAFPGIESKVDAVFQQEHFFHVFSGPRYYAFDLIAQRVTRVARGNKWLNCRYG
Sequence of 72 kDa type IV collagenase (P08253 whole entry): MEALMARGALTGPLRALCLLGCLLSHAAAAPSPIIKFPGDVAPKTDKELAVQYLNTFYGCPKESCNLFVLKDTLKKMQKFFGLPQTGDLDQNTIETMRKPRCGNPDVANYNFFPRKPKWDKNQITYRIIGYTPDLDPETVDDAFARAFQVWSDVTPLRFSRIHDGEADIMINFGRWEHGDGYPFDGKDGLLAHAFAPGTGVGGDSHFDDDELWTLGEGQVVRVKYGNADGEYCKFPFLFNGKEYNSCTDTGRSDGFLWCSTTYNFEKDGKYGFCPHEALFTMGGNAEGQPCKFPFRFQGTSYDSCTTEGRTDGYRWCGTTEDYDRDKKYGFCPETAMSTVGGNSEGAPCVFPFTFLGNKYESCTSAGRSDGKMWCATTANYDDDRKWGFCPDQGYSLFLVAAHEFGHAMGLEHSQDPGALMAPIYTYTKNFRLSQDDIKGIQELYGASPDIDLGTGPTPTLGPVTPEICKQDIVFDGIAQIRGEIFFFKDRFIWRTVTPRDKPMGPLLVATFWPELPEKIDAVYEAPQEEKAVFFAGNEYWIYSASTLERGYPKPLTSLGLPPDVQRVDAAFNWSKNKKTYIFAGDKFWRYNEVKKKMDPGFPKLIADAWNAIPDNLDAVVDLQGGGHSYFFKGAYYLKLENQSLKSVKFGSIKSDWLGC
Sequence of Matrix metalloproteinase-9 (P14780 whole entry): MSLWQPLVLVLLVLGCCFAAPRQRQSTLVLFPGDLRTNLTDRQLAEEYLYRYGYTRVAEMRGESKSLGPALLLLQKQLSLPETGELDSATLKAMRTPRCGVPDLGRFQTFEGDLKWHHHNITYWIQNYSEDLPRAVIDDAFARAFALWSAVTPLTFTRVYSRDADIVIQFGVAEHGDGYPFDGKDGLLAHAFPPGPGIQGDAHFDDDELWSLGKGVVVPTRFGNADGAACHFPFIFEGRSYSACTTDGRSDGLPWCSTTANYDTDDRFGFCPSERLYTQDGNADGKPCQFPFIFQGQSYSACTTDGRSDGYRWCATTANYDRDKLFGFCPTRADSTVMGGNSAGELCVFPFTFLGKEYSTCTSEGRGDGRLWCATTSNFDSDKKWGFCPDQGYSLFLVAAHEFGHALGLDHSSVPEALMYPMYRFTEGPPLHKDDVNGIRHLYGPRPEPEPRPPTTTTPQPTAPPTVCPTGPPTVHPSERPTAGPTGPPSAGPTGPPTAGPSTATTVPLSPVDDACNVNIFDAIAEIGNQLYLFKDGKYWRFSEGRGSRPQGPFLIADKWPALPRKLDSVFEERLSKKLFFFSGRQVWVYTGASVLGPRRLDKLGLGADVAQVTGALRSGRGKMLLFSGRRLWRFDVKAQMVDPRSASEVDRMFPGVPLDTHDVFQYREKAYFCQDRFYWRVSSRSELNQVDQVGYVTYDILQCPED

pIC50 [1]	pIC50 [2]	Cmax [3] [ng/mL]	Cp [4] [ng/mL]	pIC50 [5]	pIC50 [6]	pIC50 [7]	half-life [8] [h]	bioavailability [9] [%]	Cmax [10] [ng/mL]	Cp [11] [ng/mL]	half-life [12] [h]	bioavailability [13] [%]	pIC50 [14]	pIC50 [15]	SMILES
–	–	1380	570	5.35	> 10.00	> 10.00	1.39	21.9	–	–	–	–	–	–	O=C(NO)C1(S(=O)(=O)c2ccc(Oc3ccc(OC(F)(F)F)cc3)cc2)CCN(CCO)CC1
7.65	8.74	–	–	< 5.00	9.00	8.57	–	–	–	–	–	–	–	–	CC(C)c1ccc(Oc2ccc(S(=O)(=O)C3(C(=O)NO)CCN(C(C)C)CC3)cc2)cc1
7.67	8.82	9460	15	5.22	9.70	9.30	3.3	16.6	–	–	–	–	–	–	O=C(NO)C1(S(=O)(=O)c2ccc(Oc3ccc4c(c3)OCCO4)cc2)CCN(C2CC2)CC1
–	–	13100	206	6.00	9.30	9.52	–	–	–	–	–	–	> 10.00	–	O=C(NO)C1(S(=O)(=O)c2ccc(Oc3ccc4c(c3)OCO4)cc2)CCN(C2CC2)CC1
–	–	–	–	5.70	9.52	9.30	–	–	–	–	–	–	–	–	COCCN1CCC(C(=O)NO)(S(=O)(=O)c2ccc(Oc3ccc(OC(C)C)cc3)cc2)CC1
7.74	8.89	–	134	5.70	–	9.22	0.843	30.1	–	–	–	–	–	–	C#CCN1CCC(C(=O)NO)(S(=O)(=O)c2ccc(Oc3ccc4c(c3)OCO4)cc2)CC1
7.49	8.80	5310	21	< 5.00	10.00	9.60	0.73	23.8	–	–	–	–	–	–	C#CCN1CCC(C(=O)NO)(S(=O)(=O)c2ccc(Oc3ccc(C(C)C)cc3)cc2)CC1
–	9.40	–	–	5.30	9.40	–	–	–	7270	3113	1.71	49	–	–	O=C(NO)C1(S(=O)(=O)c2ccc(Oc3ccc(SC(F)(F)F)cc3)cc2)CCOCC1
–	–	–	–	6.52	> 10.00	10.00	–	–	–	–	–	–	> 10.00	7.98	CC(C)Oc1ccc(Oc2ccc(S(=O)(=O)C3(C(=O)NO)CCOCC3)cc2)cc1
–	–	–	–	5.59	> 10.00	9.70	–	–	–	–	–	–	> 10.00	–	C#CCN1CCC(C(=O)NO)(S(=O)(=O)c2ccc(Oc3ccc(OC(F)(F)F)cc3)cc2)CC1
–	9.15	630	223	5.00	> 10.00	10.00	1.78	6.7	–	–	–	–	–	–	O=C(NO)C1(S(=O)(=O)c2ccc(Oc3ccc(OC(F)(F)F)cc3)cc2)CCNCC1
7.74	8.74	–	–	–	–	–	–	–	–	–	–	–	–	8.35	O=C(NO)C1(S(=O)(=O)c2ccc(Oc3cccc(Cl)c3)cc2)CCOCC1
–	–	3130	3040	5.23	–	–	1.66	14.7	–	–	–	–	–	–	CCOCCN1CCC(C(=O)NO)(S(=O)(=O)c2ccc(Oc3ccc(OC(F)(F)F)cc3)cc2)CC1
–	–	–	–	5.60	> 10.00	> 10.00	–	–	–	–	–	–	> 10.00	–	CSc1ccc(Oc2ccc(S(=O)(=O)C3(C(=O)NO)CCOCC3)cc2)cc1
9.70	8.00	–	192	–	–	–	1.01	36.9	–	–	–	–	–	–	C#CCN1CCC(C(=O)NO)(S(=O)(=O)c2ccc(Oc3ccc(OC)cc3)cc2)CC1
7.30	8.62	–	–	5.85	10.00	9.60	–	–	–	–	–	–	–	–	O=C(NO)C1(S(=O)(=O)c2ccc(Oc3ccc(-c4ccccc4)cc3)cc2)CCOCC1
–	9.40	–	–	< 5.00	> 10.00	> 10.00	–	–	–	–	–	–	> 10.00	–	CC(C)N1CCC(C(=O)NO)(S(=O)(=O)c2ccc(Oc3ccc(OC(F)(F)F)cc3)cc2)CC1

The remaining lines, values behind:

SMILES	pIC50 [1]	pIC50 [2]	Cmax [3] [ng/mL]	Cp [4] [ng/mL]	pIC50 [5]	pIC50 [6]	pIC50 [7]	half-life [8] [h]	bioavailability [9] [%]	Cmax [10] [ng/mL]	Cp [11] [ng/mL]	half-life [12] [h]	bioavailability [13] [%]	pIC50 [14]	pIC50 [15]
O=C(NO)C1(S(=O)(=O)c2ccc(Oc3ccc4c(c3)OCO4)cc2)CCNCC1	7.46	8.62	1550	128	–	–	–	–	–	–	–	–	–	–	–
O=C(NO)C1(S(=O)(=O)c2ccc(Oc3ccncc3)cc2)CCOCC1	–	–	–	–	–	9.30	–	–	–	1610	3	0.25	42.3	–	–
CC(C)N1CCC(C(=O)NO)(S(=O)(=O)c2ccc(Oc3ccc(C(F)(F)F)cc3)cc2)CC1	7.40	8.85	5120	429	< 5.00	9.52	8.26	2.08	48.3	–	–	–	–	–	–
CC(C)Oc1ccc(Oc2ccc(S(=O)(=O)C3(C(=O)NO)CCN(C4CC4)CC3)cc2)cc1	–	–	–	–	6.11	10.00	10.00	–	–	–	–	–	–	–	–
COCCN1CCC(C(=O)NO)(S(=O)(=O)c2ccc(Oc3ccc4c(c3)OCO4)cc2)CC1	7.70	8.92	–	–	5.62	9.60	9.70	–	–	–	–	–	–	–	8.40
O=C(NO)C1(S(=O)(=O)c2ccc(Oc3ccc(C(F)(F)F)cc3)cc2)CCN(CCN2CCOCC2)CC1	–	–	147	73	–	9.52	9.46	0.94	2.6	–	–	–	–	–	–
COc1ccc(Oc2ccc(S(=O)(=O)C3(C(=O)NO)CCN(Cc4ccccn4)CC3)cc2)cc1	7.69	8.72	–	160	5.35	9.70	9.52	–	–	–	–	–	–	–	–
CCOc1ccc(Oc2ccc(S(=O)(=O)C3(C(=O)NO)CCN(C4CC4)CC3)cc2)cc1	–	–	–	–	6.00	10.00	9.60	–	–	–	–	–	–	9.70	–
O=C(NO)C1(S(=O)(=O)c2ccc(Oc3ccc(Cl)cc3)cc2)CCOCC1	7.74	8.92	–	–	–	–	–	–	–	3120	506	1.5	45.8	–	–
O=C(NO)C1(S(=O)(=O)c2ccc(Oc3ccc(C(F)(F)F)cc3)cc2)CCNCC1	7.19	8.70	540	150	< 5.00	8.77	8.92	1.88	12.4	–	–	–	–	–	6.80
O=C(NO)C1(S(=O)(=O)c2ccc(Oc3ccc(Cl)c(Cl)c3)cc2)CCOCC1	7.46	8.40	–	–	–	–	–	–	–	–	–	–	–	–	–
COCCN1CCC(C(=O)NO)(S(=O)(=O)c2ccc(Oc3ccc(C(C)C)cc3)cc2)CC1	–	–	–	–	5.00	10.00	9.70	–	–	–	–	–	–	–	–
O=C(NO)C1(S(=O)(=O)c2ccc(Oc3cccc(C(F)(F)F)c3)cc2)CCOCC1	7.26	7.52	–	–	< 5.00	9.10	9.10	–	–	1140	257	1.12	18.3	–	–
CN1CCC(C(=O)NO)(S(=O)(=O)c2ccc(Oc3ccc(OC(F)(F)F)cc3)cc2)CC1	–	–	–	–	< 5.00	> 10.00	9.22	–	–	–	–	–	–	9.74	–
O=C(NO)C1(S(=O)(=O)c2ccc(Oc3ccc(O)cc3)cc2)CCOCC1	–	–	–	–	6.40	9.70	9.52	–	–	–	–	–	–	> 10.00	8.77
O=C(NO)C1(S(=O)(=O)c2ccc(Oc3ccc(OC(F)(F)F)cc3)cc2)CCOCC1	7.46	9.05	–	–	–	–	–	–	–	8580	1172	1.87	35.9	–	7.97
O=C(NO)C1(S(=O)(=O)c2ccc(Oc3ccccc3)cc2)CCOCC1	8.15	9.40	–	–	–	10.00	10.00	–	–	872	50	1.74	5.8	–	–
CCN1CCC(C(=O)NO)(S(=O)(=O)c2ccc(Oc3ccc(C(F)(F)F)cc3)cc2)CC1	7.43	8.85	–	–	< 5.00	9.70	9.22	–	–	–	–	–	–	–	–
CC(=O)N1CCC(C(=O)NO)(S(=O)(=O)c2ccc(Oc3ccc(OC(F)(F)F)cc3)cc2)CC1	7.74	8.80	159	72	–	–	–	1.06	4	–	–	–	–	–	8.05

From ChEMBL document CHEMBL1800055, “Orally active MMP-1 sparing α-tetrahydropyranyl and α-piperidinyl sulfone matrix metalloproteinase (MMP) inhibitors with efficacy in cancer, arthritis, and cardiovascular disease” (J Med Chem, 2010)
